# Assay results reported in PMC6863598, “Binding of Monovalent and Bivalent Ligands by Transthyretin Causes Different Short- and Long-Distance Conformational Changes” (Journal of Medicinal Chemistry, 2019).
# Key:
# TTR HBP = target: T1, TTR HBP (Homo sapiens, UniProt P02766); experiment: NMR observation of ligand binding to the recombinant TTR halogen binding pocket; conditions: DSS added for reference purposes, Figure S4
# T1 construct: hexahistidine (TEV-cleavable) (cleaved yes); made in house; host or cells: E. coli BL21 Star (DE3), peTM11 plasmid
# Method: NMR spectra were acquired at 310 K with a Bruker AVANCE 700 and 800 MHz NMR spectrometer on a U-^2H, ^13C, ^15N-labeled recombinant TTR samples at concentrations of 50–90 μM in PBS buffer at pH 7.0 and 7.4 in a mixture H2O/D2O 90/10%.
# The addition of 4,4-dimethyl-4-silapentane-1-sulfonic acid (DSS) for reference purposes led to the observation that DSS binds to the TTR HBP (see Figure S4).
# TTR [1] = system: TTR; design: method as in PMID 28298647; conditions: cited from earlier work
# TTR [2] = conditions: simultaneous occupancy of the two binding sites; cited from earlier work
# [3] = target: TTR (human wild type TTR isolated from serum) (Homo sapiens, UniProt P02766); experiment: Surface plasmon resonance (Biacore T200) of tafamidis binding to immobilised biotinylated TTR; conditions: for k2 (off-rate, first binding site) / k4 (off-rate, second binding site): dissociation data fitted to a double exponential
# Method: Data were fitted to the model described by Scheme 1. The measured fractional response is then given by {[AB + (2ABB)]/Ai} where Ai is the notional concentration of TTR on the surface. Rate parameters were determined from the global fitting of the association data to the binding equilibria as defined by Scheme 1. […]
# Surface Plasm on Resonance. Human wild type TTR isolated from serum (Scipac) was biotinylated according to the method of Alhamadsheh et al . 3 using EZ -link sulfo NHS -LC biotin (Thermoscientific) and immobilised in […]
# phosphate buffered saline (PBS), 0.05% Tween20 to achieve 3000-4000 response units of biotinylated TTR bound to the SA-chip surface following the manufacturer’s instructions. To block unoccupied sites, biocytin (50 µM) was flowed across the chip (at a flow rate of 50 µl/min, for 1 min). Finally, the chip was washed with Hepes Buffer Saline, pH 7. 4 (+ 0. 05 % Tween20) running buffer until the SPR signal reached a stable background level.
# For all procedures, the running buffer was used at a flow rate of […]. The immobilised TTR surface was […]
# 30 µl/min) and then running buffer alone to monitor the dissociation phase. Between injections sufficient time
# [4] = SPR, ± standard deviation, listed as Tafamidis
smiles,measurement,setting,value
"C[Si](C)(C)CCCS(=O)(=O)O [DSS, 4,4-dimethyl-4-silapentane-1-sulfonic acid]",binding to the TTR HBP,TTR HBP,binds
O=C(O)c1ccccc1Nc1cc(Cl)c(OCCCCCCCOc2c(Cl)cc(Nc3ccccc3C(=O)O)cc2Cl)c(Cl)c1 [mds84],protection against the proteolytic cleavage of the peptide bond 48–49,TTR [1],highest protection
same,nature of binding by TTR,TTR [2],pseudo-irreversible
O=C(O)c1ccc2nc(-c3cc(Cl)cc(Cl)c3)oc2c1 [tafamidis],"k3 (on-rate, second binding site)","[3]; SPR global fit, Scheme 1, ± standard deviation",(3.5 ± 1.0) × 10^6 M^–1 s^–1
same,"k1 (on-rate, first binding site)","[3]; SPR global fit, Scheme 1, ± standard deviation, three independent experiments",(4.5 ± 2.2) × 10^6 M^–1 s^–1
same,difference in the observed affinities at the two sites,"[3]; SPR, Kd2 vs Kd1",7 fold
same,"k2 (off-rate, first binding site)","[3]; SPR, ± standard deviation",0.008 s^–1
same,"k4 (off-rate, second binding site)","[3]; SPR, ± standard deviation",0.06 s^–1
same,"k2 (off-rate, first binding site)",[3]; [4],(0.008 ± 0.001) s^–1
same,"k4 (off-rate, second binding site)",[3]; [4],(0.060 ± 0.006) s^–1
same,k2 (off-rate measured by SPR),"[3]; first site, Figure 7 legend",0.008 Hz
same,k4 (off-rate measured by SPR),"[3]; second site, Figure 7 legend",0.06 Hz
